Read-outs that look alike come from different tables or passages of the source.
Target: T1, ACE-2 (Homo sapiens, UniProt Q9BYF1)
T1 construct: a stop codon inserted after the serine immediately preceding the transmembrane domain; made in house; host or cells: CHO K1 cells (transient transfection, purified from conditioned medium)
Experiment: ACE-2 Competitive Substrate Assay (ACS Assay)
Assay type: biochemical

[1] = Ki class, compounds tested in 5% DMSO, 12 compound concentrations, Ki=Kiapp/(1+[S]/Km), read-out: Human ACE-2 Activity
[2] = Ki class per key, compounds tested in 5% DMSO, 12 compound concentrations, 25° C., Ki=Kiapp/(1+[S]/Km), read-out: Human ACE-2 Activity
[3] = Table 3, very good ACE-2 inhibiting compounds, species not given, read-out: ACE-2 Activity, Ki
[4] = Ki class, compounds tested in 5% DMSO, 12 concentrations, read-out: Human ACE-2 Activity

T1 sequence (Q9BYF1 18-740 limits assumed): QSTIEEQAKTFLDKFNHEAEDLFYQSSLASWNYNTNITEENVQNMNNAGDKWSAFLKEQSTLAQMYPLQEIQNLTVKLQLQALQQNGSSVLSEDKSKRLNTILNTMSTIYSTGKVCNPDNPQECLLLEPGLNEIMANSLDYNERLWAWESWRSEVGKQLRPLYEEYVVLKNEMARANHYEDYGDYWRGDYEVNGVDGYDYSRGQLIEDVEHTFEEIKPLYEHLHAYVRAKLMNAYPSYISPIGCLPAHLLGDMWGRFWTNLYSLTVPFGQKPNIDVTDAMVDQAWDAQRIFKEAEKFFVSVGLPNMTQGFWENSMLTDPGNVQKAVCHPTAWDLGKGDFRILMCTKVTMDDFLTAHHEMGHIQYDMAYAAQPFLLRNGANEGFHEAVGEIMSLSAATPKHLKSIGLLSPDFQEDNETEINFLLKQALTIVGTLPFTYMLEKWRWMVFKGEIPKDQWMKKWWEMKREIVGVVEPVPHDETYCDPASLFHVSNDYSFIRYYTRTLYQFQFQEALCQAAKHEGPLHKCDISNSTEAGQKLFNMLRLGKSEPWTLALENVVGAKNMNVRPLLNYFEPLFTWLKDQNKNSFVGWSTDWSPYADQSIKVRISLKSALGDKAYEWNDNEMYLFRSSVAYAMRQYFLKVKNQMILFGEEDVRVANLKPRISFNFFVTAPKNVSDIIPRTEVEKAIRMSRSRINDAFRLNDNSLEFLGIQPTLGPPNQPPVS

Row | SMILES | Ki [1] [nM] | further results
1 | Cc1nc(C[C@H](NC(CC(C)C)C(=O)O)C(=O)O)c(Cc2ccccc2)s1 (single isomer, unassigned) [KB, 2-[2-(5-Benzyl-2-methyl-thiazol-4-yl)-1-carboxy-ethylamino]-4-methyl-pentanoic acid] | 100 to 500 | 
2 | Cc1ccc(-n2ccc(C[C@H](N[C@@H](CC(C)C)C(=O)O)C(=O)O)n2)cc1 [QQ, 2-[1-Carboxy-2-(1-p-tolyl-1H-pyrazol-3-yl)-ethylamino]-4-methyl-pentanoic acid] |  | Ki [2]: < 100 nM; Ki [3]: 50 to 100 nM
3 | CC(C)C[C@H](N[C@@H](Cn1ccn(CCc2cccc(F)c2)c1=O)C(=O)O)C(=O)O [NP, 2-(1-Carboxy-2-{3-[2-(3-fluoro-phenyl)-ethyl]-2-oxo2,3-dihydro-imidazol-1-yl]-ethylamino)-4-methyl-pentanoic acid] | 100 to 500 | 
4 | CC(C)C[C@H](N[C@@H](CC#Cc1cc(Cl)cc(Cl)c1)C(=O)O)C(=O)O [PR, 2-(1-Carboxy-3-methyl-butylamino)-5-(3,5-dichloro-phenyl)-pent-4-ynoic acid] |  | Ki [2]: > 500 nM
5 | CC(C)C[C@H](N[C@@H](Cc1ccc(-c2ccc(F)cc2)cc1)C(=O)O)C(=O)O [OY, (S,S)-[1-Carboxy-2-(4′-fluoro-biphenyl-4-yl)-ethylamino]-4-methyl-pentanoic acid] |  | Ki [2]: < 100 nM; Ki [3]: < 50 nM
6 | CC(C)C[C@H](N[C@@H](CN1CCN(Cc2cc(F)cc(F)c2)C1=O)C(=O)O)C(=O)O [LR, 2-[1-Carboxy-2-[3-(3,5-difluoro-benzyl)-2-oxo-imidazolidin-1-yl]-ethylamino]-4-methyl-pentanoic acid] | 100 to 500 | 
7 | CC(C)C[C@H](N[C@@H](Cc1ccc(C(=O)C(F)(F)F)n1CCC1CCCCC1)C(=O)O)C(=O)O [QZ, 2-[1-Carboxy-2-[1-(2-cyclohexyl-ethyl)-5-(2,2,2-trifluoro-acetyl)-1H-pyrrol-2-yl]-ethylamino]-4-methylpentanoic acid] |  | Ki [2]: < 100 nM; Ki [3]: < 50 nM
8 | CC(C)C[C@H](N[C@@H](CNC(=O)c1cccc(Cl)c1)C(=O)O)C(=O)O [LI, (S,S)-2-[1-Carboxy-2-(3-chloro-benzoylamino)-ethylamino]-4-methyl-pentanoic acid] | > 500 | 
9 | CC(C)C[C@H](NC(=O)[C@@H](S)Cc1ccccc1)C(=O)O [KM, 2-(2-Mercapto-3-phenyl-propionylamino)-4-methyl-pentanoic acid] | > 500 | 
10 | CC(C)C[C@H](N[C@@H](Cc1ccc(-n2cccc2)cc1)C(=O)O)C(=O)O [PO, 2-[1-Carboxy-2-(4-pyrrol-1-yl-phenyl)-ethylamino]-4-methyl-pentanoic acid] |  | Ki [2]: > 500 nM; Ki [3]: < 50 nM
11 | CC(C)C[C@H](N[C@@H](Cc1ccc(NS(=O)(=O)c2ccccc2)cc1)C(=O)O)C(=O)O [PE, (S,S) 2-[2-(4-Benzenesulfonylamino-phenyl)-1-carboxy-ethylamino]-4-methyl-pentanoic acid] |  | Ki [2]: > 500 nM
12 | CC(C)C[C@H](N[C@@H](CCC(=O)Nc1nc2ccc(F)cc2s1)C(=O)O)C(=O)O [OV, (S,S)-2-[1-Carboxy-3-(6-fluoro-benzothiazol-2-ylcarbamoyl)-propylamino]-4-methyl-pentanoic acid] | > 500 | 
13 | CCCCOC(=O)[C@H](Cc1cncn1Cc1cc(Cl)cc(Cl)c1)N[C@@H](CC(C)C)C(=O)O [LD, (S,S) 2-{1-Butoxycarbonyl-2-[3-(3,5-dichloro-benzyl)-3H-imidazol-4-yl]-ethylamino}-4-methyl-pentanoic acid] | < 100 | 
14 | CC(C)C[C@H](N[C@@H](Cc1ccc(-c2cccnc2)cc1)C(=O)O)C(=O)O [PJ, (S,S)-2-[1-Carboxy-2-(4-pyridin-3-yl-phenyl)-ethylamino]-4-methyl-pentanoic acid] |  | Ki [2]: < 100 nM; Ki [3]: 50 to 100 nM
15 | CC(C)C[C@H](N[C@@H](CC(=O)Nc1nc2ccc(Br)cc2s1)C(=O)O)C(=O)O [MR, 2-[2-(6-Bromo-benzothiazol-2-ylcarbamoyl]-1-carboxy-ethylamino]-4-methyl-pentanoic acid] | < 100 | Ki [3]: < 50 nM
16 | CC(C)C[C@H](N[C@@H](Cc1csc(-c2cccc(C(F)(F)F)c2)n1)C(=O)O)C(=O)O [KD, (S,S)-2-{1-Carboxy-2-[2-(3-trifluoromethyl-phenyl)-thiazol-4-yl-]-ethylamino}-4-methyl-pentanoic acid] | > 500 | 
17 | O=C(O)[C@@H]1CCC[C@H](C(=O)O)N1 [H, Pipendine-2,6-dicarboxylic acid] |  | Ki [4]: > 500 nM
18 | CC(C)C[C@H](N[C@@H](CC(=O)Nc1nc(-c2ccccc2)cs1)C(=O)O)C(=O)O [OH, (S,S)-2-[1-Carboxy-2-(4-phenyl-thiazol-2-ylcarbamoyl)-ethylamino]-4-methyl-pentanoic acid] | > 500 | 
19 | COC(=O)[C@H](Cc1cccc(O)c1)N[C@@H](CC(C)C)C(=O)OCc1ccccc1 [LK, 2-[2-(3-Hydroxy-phenyl)-1-methoxycarbonyl-ethylamino]-4-methyl-pentanoic acidbenzyl ester] | > 500 | 
20 | CC(C)C[C@H](N[C@@H](Cn1ccn(CC2CC2)c1=O)C(=O)O)C(=O)O [MH, 2-[1-Carboxy-2-(3-cyclopropylmethyl-2-oxo-2,3-dihydro-imidazol-1-yl)-ethylamino]-4-methyl-pentanoic acid] | 100 to 500 | 
21 | CC(C)C[C@H](N[C@@H](CC(=O)Nc1nc2c(Cl)cccc2s1)C(=O)O)C(=O)O [MD, (S,S)-2-[1-Carboxy-2-(4-chloro-benzothiazol-2-ylcarbamoyl)-ethylamino]-4-methyl-pentanoic acid] | < 100 | Ki [3]: < 50 nM
22 | CC1(C)SC(C(=O)O)NC1C(=O)O (stereo not shown) [L, 5,5-Dimethyl-thiazolidine-2,4-dicarboxylic acid] |  | Ki [4]: > 500 nM
23 | CC(C)C[C@H](N[C@@H](Cc1ccc(-c2cc(F)cc(F)c2)o1)C(=O)O)C(=O)O [NU, (S,S)-2-{1-Carboxy-2-[5-(3,5-difluoro-phenyl)-furan-2-yl]-ethylamino}-4-methyl-pentanoic acid] | > 500 | 
24 | CC(C)C[C@H](N[C@@H](Cc1ccccc1Oc1cc(Cl)cc(Cl)c1)C(=O)O)C(=O)O [QN] |  | Ki [2]: < 100 nM; Ki [3]: < 50 nM
25 | CC(C)C[C@H](N[C@@H](CCNS(=O)(=O)c1ccc(-c2ccccc2)cc1)C(=O)O)C(=O)O [KF, 2-[3-(Biphenyl-4-sulfonylamino)-1-carboxy-propylamino]-4-methyl-pentanoic acid] | 100 to 500 | 
26 | CC(C)C[C@H](N[C@@H](Cc1ccc(NC(=O)c2cc(F)cc(F)c2)cc1)C(=O)O)C(=O)O [OX, (S,S) 2-{1-Carboxy-2-[4-(3,5-difluoro-benzoylamino)-phenyl]-ethylamino}-4-methyl-pentanoic acid] |  | Ki [2]: < 100 nM; Ki [3]: < 50 nM
27 | CC(C)C[C@H](N[C@@H](Cc1ccc(C(=O)O)n1Cc1cc(Cl)cc(Cl)c1)C(=O)O)C(=O)O [QY, 5-[2-Carboxy-2-(1-carboxy-3-methyl-butylamino)-ethyl]-1-(3,5-dichloro-benzyl)-1H-pyrrole-2-carboxylic acid] |  | Ki [2]: < 100 nM; Ki [3]: < 50 nM

Now from value to compound, other results behind:

Row | Ki [1] [nM] | SMILES | further results
28 | > 500 | CC(C)CC(N[C@@H](Cc1cncn1Cc1ccc(C(C)(C)C)cc1)C(=O)O)C(=O)O (single isomer, unassigned) [HZ, 2-[2-[3-(4-tert-Butyl-benzyl)-3H-imidazol-4-yl]-1-carboxy-ethylamino]-4-methyl-pentanoic acid] | 
29 | 100 to 500 | Cc1ccc(Cn2cncc2C[C@H](NC(CC(C)C)C(=O)O)C(=O)O)cc1 (single isomer, unassigned) [HH, 2-[1-Carboxy-2-[3-(4-methyl-benzyl)-3H-imidazol-4-yl]-ethylamino)4-methyl-pentanoic acid] | 
30 | > 500 | CC(C)CC(N[C@@H](Cc1cncn1Cc1ccc(C#N)cc1)C(=O)O)C(=O)O (single isomer, unassigned) [HB, 2-[1-Carboxy-2-[3-(4-cyano-benzyl)-3H-imidazol-4-yl]-ethylamino)4-methyl-pentanoic acid] | 
31 | < 100 | CC(C)C[C@H](N[C@@H](Cc1ccc(-c2ccsc2)cc1)C(=O)O)C(=O)O [NF, (S,S)-2-[1-Carboxy-2-(4-thiophen-3-yl-phenyl)-ethylamino]-4-methyl-pentanoic acid] | Ki [3]: 50 to 100 nM
32 | > 500 | CC(C)CC(N[C@@H](Cc1cncn1Cc1cc(C(F)(F)F)cc(C(F)(F)F)c1)C(=O)O)C(=O)O (single isomer, unassigned) [IG, 2-[2-[3-(3,5-Bis-trifluoromethyl-benzyl)-3H-imidazol-4-yl]-1-carboxy-ethylamino]-4-methyl-pentanoic acid] | 
33 | > 500 | CC(C)CC(N[C@@H](Cc1cncn1Cc1cccc(Cl)c1)C(=O)O)C(=O)O (single isomer, unassigned) [HD, 2-{1-Carboxy-2-[3-(3-chloro-benzyl)-3H-imidazol-4-yl]-ethylamino)4-methyl-pentanoic acid] | 
34 | 100 to 500 | CC(C)C[C@H](N[C@@H](Cn1ccn(Cc2ccc(F)c(F)c2)c1=O)C(=O)O)C(=O)O [OU, 2-[1-Carboxy-2-[3-(3,4-difluoro-benzyl)-2-oxo-2,3-dihydro-imidazol-1-yl]-ethylamino]-4-methyl-pentanoic acid] | 
35 | > 500 | CC(C)C[C@H](N[C@@H](Cc1cccc(OCc2ccncc2)c1)C(=O)O)C(=O)O [NZ, S,S-2-{1-Carboxy-2-[3-(pyridin-4-ylmethoxy)-phenyl]-ethylamino}-4-methyl pentanoic acid] | 
36 | > 500 | CC(C)CC(N[C@@H](Cc1cncn1Cc1ccc2c(c1)OCO2)C(=O)O)C(=O)O (single isomer, unassigned) [JF] | 
37 | 100 to 500 | CCOC(=O)[C@H](Cc1cncn1Cc1cc(Cl)cc(Cl)c1)N[C@@H](CC(C)C)C(=O)O [MY, (S,S) 2-{2-[3-(3,5-Dichloro-benzyl)-3H-imidazol-4-yl]-1-ethoxycarbonyl-ethylamino}-4-methyl-pentanoic acid] | 
38 | < 100 | CCC(CC)Cn1cncc1C[C@H](NC(CC(C)C)C(=O)O)C(=O)O (single isomer, unassigned) [JM, 2-[1-Carboxy-2-[3-(2-ethylbutyl)-3H-imidazol-4-yl]-ethylamino]-4-methyl-pentanoic acid] | 

From patent US7045532B2 (Millennium Pharmaceuticals, Inc., priority 1999, dated 2006)
